# Test system: erythropoietin
# Test: In vitro erythropoietin induction (ELISA of cell culture supernatant)
# Settings: Homo sapiens, Hep3B, 16 h; for fold induction at 200 µM: read-out: EPO fold induction, Hep3B cell line, 200 uM, 16 hours, relative to vehicle control
# Method: Hep3B cell line (ATCC HB8064) was employed. Induction of erythropoietin was carried out for the indicated dose of compounds for 16 hours duration. At the end of 16 hours, cell culture medium was collected and centrifuged to remove any debris. Supernatant obtained was analyzed for erythropoietin by ELISA (R&D systems, USA). The results were expressed as fold induction as compared to vehicle control.
structure (smiles),measurement,setting,value
"O=C(O)CNC(=O)c1c(O)nc2sc3c(n2c1=O)CCN(c1ccc(Cl)nn1)C3 [Compound 35, {[7-(6-Chloro-pyridazin-3-yl)-2-hydroxy-4-oxo-5,6,7,8-tetrahydro-4H-9-thia-1,4a,7-triaza-fluorene-3-carbonyl]-amino}-acetic acid]",fold induction at 200 µM,,< 2
"O=C(O)CNC(=O)c1c(O)nc2sc3c(n2c1=O)CCN(S(=O)(=O)c1ccc(Cl)s1)C3 [Compound 17, {[7-(5-Chloro-thiophene-2-sulfonyl)-2-hydroxy-4-oxo-5,6,7,8-tetrahydro-4H-9-thia-1,4a,7-triaza-fluorene-3-carbonyl]-amino}-acetic acid]",fold induction at 200 µM,,2 to 4
"O=C(O)CNC(=O)c1c(O)nc2oc3c(n2c1=O)CCCC3 [Compound 57, [(2-Hydroxy-4-oxo-5,6,7,8-tetrahydro-4H-9-oxa-1,4a-diaza-fluorene-3-carbonyl)-amino]-acetic acid]",fold induction at 200 µM,,< 2
"CC(C)[C@H](NC(=O)c1c(O)nc2sc3c(n2c1=O)CCC(C)(C)C3)C(=O)O [Compound 43, 2-[(2-Hydroxy-7,7-dimethyl-4-oxo-5,6,7,8-tetrahydro-4H-9-thia-1,4a-diaza-fluorene-3-carbonyl)-amino]-3-methyl-butyric acid (L-isomer)]",fold induction at 200 µM,,< 2
"COc1ccc(CN2CCc3c(sc4nc(O)c(C(=O)NCC(=O)O)c(=O)n34)C2)cc1 [Compound 31, {[2-Hydroxy-7-(4-methoxy-benzyl)-4-oxo-5,6,7,8-tetrahydro-4H-9-thia-1,4a,7-triaza-fluorene-3-carbonyl]-amino}-acetic acid]",fold induction at 200 µM,,5 to 8
"CCOC(=O)N1CCc2c(sc3nc(O)c(C(=O)NCC(=O)O)c(=O)n23)C1 [Compound 2, 3-(Carboxymethyl-carbamoyl)-2-hydroxy-4-oxo-5,8-dihydro-4H,6H-9-thia-1,4a,7-triaza-fluorene-7-carboxylic acid ethyl ester]",fold induction at 200 µM,,5 to 8
"CS(=O)(=O)N1CCc2c(sc3nc(O)c(C(=O)NCC(=O)O)c(=O)n23)C1 [Compound 3, [(2-Hydroxy-7-methanesulfonyl-4-oxo-5,6,7,8-tetrahydro-4H-9-thia-1,4a,7-triaza-fluorene-3-carbonyl)-amino]-acetic acid]",fold induction at 200 µM,,2 to 4
"Cc1ccc(S(=O)(=O)N2CCc3c(sc4nc(O)c(C(=O)NCC(=O)O)c(=O)n34)C2)cc1 [Compound 7, {[2-Hydroxy-4-oxo-7-(toluene-4-sulfonyl)-5,6,7,8-tetrahydro-4H-9-thia-1,4a,7-triaza-fluorene-3-carbonyl]-amino}-acetic acid]",fold induction at 200 µM,,2 to 4
"CCCC1CCc2c(sc3nc(O)c(C(=O)NCC(=O)O)c(=O)n23)C1 (centres unmarked) [Compound 59, [(2-Hydroxy-4-oxo-7-propyl-5,6,7,8-tetrahydro-4H-9-thia-1,4a-diaza-fluorene-3-carbonyl)-amino]-acetic acid]",fold induction at 200 µM,,< 2
"CCCCc1ccc(C(=O)N2CCc3c(sc4nc(O)c(C(=O)NCC(=O)O)c(=O)n34)C2)cc1 [Compound 21, {[7-(4-Butyl-benzoyl)-2-hydroxy-4-oxo-5,6,7,8-tetrahydro-4H-9-thia-1,4a,7-triaza-fluorene-3-carbonyl]-amino}-acetic acid]",fold induction at 200 µM,,9 to 16
"O=C(O)CCNC(=O)c1c(O)nc2sc3c(n2c1=O)CCC3 [Compound 14, 3-[(2-Hydroxy-4-oxo-7,8-dihydro-4H,6H-cyclopenta[4,5]thiazolo[3,2-a]pyrimidine-3-carbonyl)-amino]-propionic acid]",fold induction at 200 µM,,2 to 4
"O=C(O)CNC(=O)c1c(O)nc2sc3c(n2c1=O)CCN(C(=O)c1ccc(OC(F)(F)F)cc1)C3 [Compound 22, {[2-Hydroxy-4-oxo-7-(4-trifluoromethoxy-benzoyl)-5,6,7,8-tetrahydro-4H-9-thia-1,4a,7-triaza-fluorene-3-carbonyl]-amino}-acetic acid]",fold induction at 200 µM,,5 to 8
"O=C(O)CNC(=O)c1c(O)nc2sc3c(n2c1=O)CCN(C(=S)Nc1ccc(F)cc1)C3 [Compound 24, {[7-(4-Fluoro-phenylthiocarbamoyl)-2-hydroxy-4-oxo-5,6,7,8-tetrahydro-4H-9-thia-1,4a,7-triaza-fluorene-3-carbonyl]-amino}-acetic acid]",fold induction at 200 µM,,5 to 8
"CC(C)(C)C1CCc2c(sc3nc(O)c(C(=O)NCCC(=O)O)c(=O)n23)C1 (centres unmarked) [Compound 15, 3-[(7-tert-Butyl-2-hydroxy-4-oxo-5,6,7,8-tetrahydro-4H-9-thia-1,4a-diaza-fluorene-3-carbonyl)-amino]-propionic acid]",fold induction at 200 µM,,< 2
"CC(C)NC(=S)N1CCc2c(sc3nc(O)c(C(=O)NCC(=O)O)c(=O)n23)C1 [Compound 25, [(2-Hydroxy-7-isopropylthiocarbamoyl-4-oxo-5,6,7,8-tetrahydro-4H-9-thia-1,4a,7-triaza-fluorene-3-carbonyl)-amino]-acetic acid]",fold induction at 200 µM,,2 to 4
"O=C(O)CNC(=O)c1c(O)nc2sc3c(n2c1=O)CCN(C(=O)CC1CCCC1)C3 [Compound 29, {[7-(2-Cyclopentyl-acetyl)-2-hydroxy-4-oxo-5,6,7,8-tetrahydro-4H-9-thia-1,4a,7-triaza-fluorene-3-carbonyl]-amino}-acetic acid]",fold induction at 200 µM,,9 to 16
"CC1CCc2c(sc3nc(O)c(C(=O)NCC(=O)O)c(=O)n23)C1 (centres unmarked) [Compound 58, [(2-Hydroxy-7-methyl-4-oxo-5,6,7,8-tetrahydro-4H-9-thia-1,4a-diaza-fluorene-3-carbonyl)-amino]-acetic acid]",fold induction at 200 µM,,5 to 8
"COc1ccc(C(=O)N2CCc3c(sc4nc(O)c(C(=O)NCC(=O)O)c(=O)n34)C2)cc1Cl [Compound 37, {[7-(3-Chloro-4-methoxy-benzoyl)-2-hydroxy-4-oxo-5,6,7,8-tetrahydro-4H-9-thia-1,4a,7-triaza-fluorene-3-carbonyl]-amino}-acetic acid]",fold induction at 200 µM,,5 to 8
"CC(NC(=O)c1c(O)nc2sc3c(n2c1=O)CCC(C)(C)C3)C(=O)O (centres unmarked) [Compound 40, 2-[(2-Hydroxy-7,7-dimethyl-4-oxo-5,6,7,8-tetrahydro-4H-9-thia-1,4a-diaza-fluorene-3-carbonyl)-amino]-propionic acid]",fold induction at 200 µM,,5 to 8
"O=C(O)CNC(=O)c1c(O)nc2sc3c(n2c1=O)CCC3 [Compound 11, [(2-Hydroxy-4-oxo-7,8-dihydro-4H,6H-cyclopenta[4,5]thiazolo[3,2-a]pyrimidine-3-carbonyl)-amino]-acetic acid]",fold induction at 200 µM,,5 to 8
"O=C(O)CNC(=O)c1c(O)nc2sc3c(n2c1=O)CCC(NC(=O)c1ccccc1)C3 (centres unmarked) [Compound 56, [(7-Benzoylamino-2-hydroxy-4-oxo-5,6,7,8-tetrahydro-4H-9-thia-1,4a-diaza-fluorene-3-carbonyl)-amino]-acetic acid]",fold induction at 200 µM,,< 2
"O=C(O)CNC(=O)c1c(O)nc2sc3c(n2c1=O)CCN(S(=O)(=O)c1ccc(OC(F)(F)F)cc1)C3 [Compound 19, {[2-Hydroxy-4-oxo-7-(4-trifluoromethoxy-benzenesulfonyl)-5,6,7,8-tetrahydro-4H-9-thia-1,4a,7-triaza-fluorene-3-carbonyl]-amino}-acetic acid]",fold induction at 200 µM,,2 to 4
"N#Cc1cccnc1N1CCc2c(sc3nc(O)c(C(=O)NCC(=O)O)c(=O)n23)C1 [Compound 36, {[7-(3-Cyano-pyridin-2-yl)-2-hydroxy-4-oxo-5,6,7,8-tetrahydro-4H-9-thia-1,4a,7-triaza-fluorene-3-carbonyl]-amino}-acetic acid]",fold induction at 12.5 µM,"read-out: EPO fold induction, Hep3B cell line, 12.5 uM, 16 hours, relative to vehicle control",< 2
